biological target: T1, JNK1α1 (Homo sapiens, UniProt P45983); assay: Coupled spectrophotometric (PK/LDH) JNK1α1 assay: % inhibition and Ki determination; format: biochemical; conditions: JNK-1
T1 construct: catalytic domain containing amino acids 1-364 and N-terminal hexahistidine tag; hexahistidine (His6) (N); made in house; host or cells: E. coli BL21 (DE3)
Protocol: % Inhibition and Ki Determination
A coupled spectrophotometric assay, coupling JNK1α1 activity to the oxidation of β-NADH to NAD+ through the action of pyruvate kinase (PK) and lactic dehydrogenase (LDH), was used to determine the potency (percent inhibition at 1 or 10 μM or Ki) of compounds against JNK1α1 (Genbank Accession Number: L26318). […] The reaction was monitored by following the decrease in absorbance at 340 nm. The initial reaction rate was determined by the slope of the change in absorbance. To calculate percent inhibition the rate of the reaction in the presence of 1 or 10 μM compound was compared to the rate of the reaction with only DMSO multiplied by 100 percent. Note, the background rate of the above reaction in the presence of 10 μM PHA-00738186 was subtracted from all rates. […] Y=(−X+Eo−(Ki*(1+A/Km))+((X−Eo+(Ki*(1+A/Km)))^2+4*Eo*(Ki*(1+A/Km)))^0.5)*(Vm*A/(Km+A)/(2*Eo)) Formula: • Parameters: Eo, Ki, A, Km, Vo • Y is initial reaction velocity; • X is inhibitor concentration; • A is [ATP]; • Ki is inhibition constant; • Vm is Vmax; • Eo is total (initial) enzyme concentration; • Km is ATP Km;
The compounds were prepared in 100% DMSO at a 40× concentration. For percent inhibition experiments this would be 400 or 40 μM for 10 and 1 μM final concentration, respectively. For the Ki determination 3× serial dilutions were made starting at 4 mM (100 μM at 1×) in DMSO. A total of 11 concentrations were used for the analysis. The compounds were added to the reaction plate first. Next, a solution containing the HEPES, MgCl2, DTT, peptide substrate, NADH, PEP, PK/LDH enzyme, and JNK1α1—364nHis enzyme was added to the assay plate. The plate was incubated at room temperature for 15 minutes. Then the plate was warmed to 30° C. for 5 minutes. The reaction was initiated with the addition of ATP. The reaction was run in a plate reader at 30° C. for 20 minutes with absorbance readings made about every 10 seconds.
The column with “#” heading refers to compound number as exemplified in the Examples section. The column with “Ki” heading refers to Ki (in nM). The column with “% Inhibition” heading refers to percent inhibition of JNK-1 at 1 μM or 10 μM (in %) unless otherwise stated. ND refers to no data was taken.

T1 sequence (P45983 1-364): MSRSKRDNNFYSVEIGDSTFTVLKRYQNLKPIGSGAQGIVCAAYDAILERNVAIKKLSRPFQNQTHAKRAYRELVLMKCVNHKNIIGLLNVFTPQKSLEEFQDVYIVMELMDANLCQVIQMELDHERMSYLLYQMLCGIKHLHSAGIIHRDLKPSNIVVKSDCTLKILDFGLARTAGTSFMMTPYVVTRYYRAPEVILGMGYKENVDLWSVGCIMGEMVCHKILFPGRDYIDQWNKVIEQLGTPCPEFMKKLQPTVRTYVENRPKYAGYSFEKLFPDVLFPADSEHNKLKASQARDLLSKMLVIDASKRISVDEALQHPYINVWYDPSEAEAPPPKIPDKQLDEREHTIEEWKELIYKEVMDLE

Ki	Compound
257 nM	O=C(N[C@@H]1CCC[C@H]1O)c1cccc2cnc(N[C@H]3CC[C@H](O)CC3)nc12 (relative stereo) [Example 136, 2-[(trans-4-hydroxycyclohexyl)amino]-N-[(trans)-2-hydroxycyclopentyl]quinazoline-8-carboxamide]
950 nM	CC(=O)N[C@H]1CC[C@H](Nc2ncc3cccc(C(=O)N[C@@H]4CCC[C@H]4O)c3n2)CC1 (relative stereo) [Example 138, 2-{[trans-4-(acetylamino)cyclohexyl]amino}-N-[(trans)-2-hydroxycyclopentyl]quinazoline-8-carboxamide]
29 nM	CN([C@H]1CC[C@H](Nc2ncc3cccc(C(=O)N[C@@H]4COC[C@H]4O)c3n2)CC1)S(C)(=O)=O (relative stereo) [Example 141, N-[(trans)-4-hydroxytetrahydrofuran-3-yl]-2-({trans-4-[methyl(methylsulfonyl)amino]cyclohexyl}amino)quinazoline-8-carboxamide]
0.8 nM	COc1ccc(CC(=O)Nc2cc3cc(-c4cnn(C)c4)ccc3cn2)cc1 [Example 4, 2-(4-methoxyphenyl)-N-[6-(1-methyl-1H-pyrazol-4-yl)isoquinolin-3-yl]acetamide]
79 nM	O=C(Cc1ccc2ccccc2c1)Nc1cc2cc(-c3cn[nH]c3)ccc2cn1 [Example 5, 2-(2-naphthyl)-N-[6-(1H-pyrazol-4-yl)isoquinolin-3-yl]acetamide]
39 nM	O=C(Cc1ccccc1)Nc1cc2cc(-c3cn[nH]c3)ccc2cn1 [Example 6, 2-phenyl-N-[6-(1H-pyrazol-4-yl)isoquinolin-3-yl]acetamide]
> 50 nM	O=C(Nc1cc2cc(-c3cn[nH]c3)ccc2cn1)C1NCc2ccccc21 (stereo not shown) [Example 14, N-[6-(1H-pyrazol-4-yl)isoquinolin-3-yl]isoindoline-1-carboxamide]
24 nM	CC(=O)N1CCC(C(=O)Nc2cc3cc(-c4cn[nH]c4)ccc3cn2)CC1 [Example 15, 1-acetyl-N-[6-(1H-pyrazol-4-yl)isoquinolin-3-yl]piperidine-4-carboxamide]
31 nM	CC(C)C(=O)Nc1cc2cc(-c3cn[nH]c3)ccc2cn1 [Example 16, 2-methyl-N-[6-(1H-pyrazol-4-yl)isoquinolin-3-yl]propanamide]
> 50 nM	Cc1ccc2c(c1)CCC2C(=O)Nc1cc2cc(-c3cn[nH]c3)ccc2cn1 (stereo not shown) [Example 21, 5-methyl-N-[6-(1H-pyrazol-4-yl)isoquinolin-3-yl]indane-1-carboxamide]
14 nM	O=C(CN1Cc2ccccc2C1=O)Nc1cc2cc(-c3cn[nH]c3)ccc2cn1 [Example 25, 2-(1-oxo-1,3-dihydro-2H-isoindol-2-yl)-N-[6-(1H-pyrazol-4-yl)isoquinolin-3-yl]acetamide]
4 nM	COCCC(=O)Nc1cc2cc(-c3cn[nH]c3)ccc2cn1 [Example 27, 3-methoxy-N-[6-(1H-pyrazol-4-yl)isoquinolin-3-yl]propanamide]
32 nM	COC1CCC(C(=O)Nc2cc3cc(-c4cn[nH]c4)ccc3cn2)CC1 (stereo not shown) [Example 28, 4-methoxy-N-[6-(1H-pyrazol-4-yl)isoquinolin-3-yl]cyclohexanecarboxamide]

Second part, the compound before the results:

Compound	Ki
CS(=O)(=O)N[C@H]1CC[C@H](Nc2ncc3cccc(C(=O)N[C@@H]4CCC[C@H]4O)c3n2)CC1 (relative stereo) [Example 137, N-[(trans)-2-hydroxycyclopentyl]-2-({trans-4-[(methylsulfonyl)amino]cyclohexyl}amino)quinazoline-8-carboxamide]	263 nM
O=C(N[C@@H]1COC[C@H]1O)c1cccc2cnc(N[C@H]3CC[C@H](O)CC3)nc12 (relative stereo) [Example 139, 2-[(trans-4-hydroxycyclohexyl)amino]-N-[(trans)-4-hydroxytetrahydrofuran-3-yl]quinazoline-8-carboxamide]	16 nM
CC(=O)N[C@H]1CC[C@H](Nc2ncc3cccc(C(=O)N[C@@H]4COC[C@H]4O)c3n2)CC1 (relative stereo) [Example 140, 2-{[trans-4-(acetylamino)cyclohexyl]amino}-N-[(trans)-4-hydroxytetrahydrofuran-3-yl]quinazoline-8-carboxamide]	52 nM
CN([C@H]1CC[C@H](Nc2ncc3cccc(C(=O)N[C@@H]4CCC[C@H]4O)c3n2)CC1)S(C)(=O)=O (relative stereo) [Example 142, N-[(trans)-2-hydroxycyclopentyl]-2-({trans-4-[methyl(methylsulfonyl)amino]cyclohexyl}amino)quinazoline-8-carboxamide]	226 nM
COc1ccc(CC(=O)Nc2cc3cc(-c4cn[nH]c4)ccc3cn2)cc1 [Example 1, 2-(4-methoxyphenyl)-N-[6-(1H-pyrazol-4-yl)isoquinolin-3-yl]acetamide]	76 nM
COc1ccc2[nH]c(C)c(CC(=O)Nc3cc4cc(-c5cn[nH]c5)ccc4cn3)c2c1 [Example 2, 2-(5-methoxy-2-methyl-1H-indol-3-yl)-N-[6-(1H-pyrazol-4-yl)isoquinolin-3-yl]acetamide]	77 nM
O=C(CC1CCOCC1)Nc1cc2cc(-c3cn[nH]c3)ccc2cn1 [Example 7, N-[6-(1H-pyrazol-4-yl)isoquinolin-3-yl]-2-(tetrahydro-2H-pyran-4-yl)acetamide]	20 nM
CC(C(=O)Nc1cc2cc(-c3cn[nH]c3)ccc2cn1)c1ccccc1 (stereo not shown) [Example 8, 2-phenyl-N-[6-(1H-pyrazol-4-yl)isoquinolin-3-yl]propanamide]	> 50 nM
O=C(CNC(=O)c1ccccc1)Nc1cc2cc(-c3cn[nH]c3)ccc2cn1 [Example 9, N-(2-oxo-2-{[6-(1H-pyrazol-4-yl)isoquinolin-3-yl]amino)ethyl)benzamide]	17 nM
CC(=O)OCC(C)(C)CC(=O)Nc1cc2cc(-c3cn[nH]c3)ccc2cn1 [Example 10, 2,2-dimethyl-4-oxo-4-{[6-(1H-pyrazol-4-yl)isoquinolin-3-yl]amino)butyl acetate]	42 nM
CC(C)CC(=O)Nc1cc2cc(-c3cn[nH]c3)ccc2cn1 [Example 11, 3-methyl-N-[6-(1H-pyrazol-4-yl)isoquinolin-3-yl]butanamide]	26 nM
O=C(CCc1cc(Cl)no1)Nc1cc2cc(-c3cn[nH]c3)ccc2cn1 [Example 12, 3-(3-chloroisoxazol-5-yl)-N-[6-(1H-pyrazol-4-yl)isoquinolin-3-yl]propanamide]	29 nM
O=C(CC1CCS(=O)(=O)C1)Nc1cc2cc(-c3cn[nH]c3)ccc2cn1 (stereo not shown) [Example 13, 2-(1,1-dioxidotetrahydro-3-thienyl)-N-[6-(1H-pyrazol-4-yl)isoquinolin-3-yl]acetamide]	36 nM
O=C(Nc1cc2cc(-c3cn[nH]c3)ccc2cn1)c1ccccc1 [Example 17, N-[6-(1H-pyrazol-4-yl)isoquinolin-3-yl]benzamide]	> 30 nM
O=C(CCc1cn2cccnc2n1)Nc1cc2cc(-c3cn[nH]c3)ccc2cn1 [Example 18, 3-imidazo[1,2-a]pyrimidin-2-yl-N-[6-(1H-pyrazol-4-yl)isoquinolin-3-yl]propanamide]	32 nM
Cc1cc(C(=O)NCC(=O)Nc2cc3cc(-c4cn[nH]c4)ccc3cn2)no1 [Example 19, 5-methyl-N-(2-oxo-2-{[6-(1H-pyrazol-4-yl)isoquinolin-3-yl]amino}ethyl)isoxazole-3-carboxamide]	13 nM
COc1ccc(CCC(=O)Nc2cc3cc(-c4cn[nH]c4)ccc3cn2)cc1 [Example 20, 3-(4-methoxyphenyl)-N-[6-(1H-pyrazol-4-yl)isoquinolin-3-yl]propanamide]	44 nM
COc1ccc2c(c1OC)CC[C@@H]2C(=O)Nc1cc2cc(-c3cn[nH]c3)ccc2cn1 [Example 22, (S)-4,5-dimethoxy-N-[6-(1H-pyrazol-4-yl)isoquinolin-3-yl]indane-1-carboxamide]	> 50 nM
COc1ccc2c(c1OC)CC[C@H]2C(=O)Nc1cc2cc(-c3cn[nH]c3)ccc2cn1 [Example 23, (R)-4,5-dimethoxy-N-[6-(1H-pyrazol-4-yl)isoquinolin-3-yl]indane-1-carboxamide]	2 nM
O=C(Cc1ccc(Oc2ccnc3ccsc23)cc1)Nc1cc2cc(-c3cn[nH]c3)ccc2cn1 [Example 24, N-[6-(1H-pyrazol-4-yl)isoquinolin-3-yl]-2-[4-(thieno[3,2-b]pyridin-7-yloxy)phenyl]acetamide]	25 nM
O=C(COc1ccc2ccccc2c1)Nc1cc2cc(-c3cn[nH]c3)ccc2cn1 [Example 26, 2-(2-naphthyloxy)-N-[6-(1H-pyrazol-4-yl)isoquinolln-3-yl]acetamide]	7 nM

Reference: US7998978B2 (Pfizer Inc., priority 2006, dated 2011)
